{"source": "patent EP0257993B1", "about": "“Nucleic acid fragment encoding herbicide resistant plant acetolactate synthase” (priority 1986, dated 1988)", "key": {"Hra mutant plants": {"system": "Hra mutant plants", "experiment": "Foliar application to Hra mutant plants", "type": "in vivo, Nicotiana tabacum"}, "tobacco callus": {"system": "tobacco callus", "experiment": "Growth of tobacco mutant callus (C3, S4, Hra) on herbicide", "type": "cell-based, Nicotiana tabacum var. Xanthi", "protocol": "(§1) Callus cultures of sensitive tobacco (Nicotiana tabacum var. Xanthi) were exposed to sulfometuron methyl at 2 ppb according to the method described by Chaleff, U.S. 4,443,971. […] Plants were regenerated from Hra callus cultures. […] ALS activity in extracts of leaves of wild type and homozygous Hra mutant tobacco plants was determined."}, "ALS [1]": {"system": "ALS", "type": "biochemical, Nicotiana tabacum", "details": "C3 and S4 lines", "protocol": "as §1"}, "[2]": {"system": "progeny of tobacco transformants", "experiment": "Progeny test of seeds on SG medium with herbicide", "type": "in vivo, Nicotiana tabacum CV.NK326 or K14", "protocol": "(§2) Approximately 1-2 weeks late shoots developing on kanamycin-selected explants were excised with a sterile scalpel and planted in A medium containing 100 mg/l kanamycin. Root formation on selective and non-selective media was recorded within 3 weeks. Shoots which rooted in kanamycin were transferred to soil and grown in a growth chamber as described above. After 3 to 5 weeks, but before flowering had occurred, leaf tissue was excised and used for ALS assays as described in Example VI. […] Individual flowers were bagged to permit self-fertilization without cross-pollination. Mature seeds were harvested and progeny tests were conducted to determine inheritance of the herbicide resistance trait. Seeds were surface sterilized as described above, dried and planted on SG medium (1/4 MS salts, 0.75% sucrose, 0.8% Agar) in the presence or absence of herbicide (DPX-F6025, Classic®). […] A segregration ratio of 3 resistant progeny to 1 sensitive indicated the presence of a single-site insertion of the SURB-Hra gene in the trasnformant which was stably inherited. […] Higher ratios of resistant to sensitive progeny indicated multiple insertions at unlinked positions in the genome. The 15/1 ratio indicates the presence of 2 unlinked SURB-Hra genes and 255/1 ratio indicates 4 unlinked SURB-Hra genes in the transformants K14 #40 and K14 #7, respectively."}, "ALS [3]": {"system": "ALS", "experiment": "ALS assay of leaf extracts, wild-type tomato", "type": "biochemical, Lycopersicon esculentum var. Herbst Red Cherry", "protocol": "After approximately 2-4 weeks, shoots developing off of kanamycin-selected cotyledons were excised and planted in OMS media containing 500 mg/L cefotaxime and 100 mg/L kanamycin. Tomato shoots which rooted in kanamycin after about 2-3 weeks were transferred to soil in 8\" pots and covered with plastic bags. The plants were grown under mixed fluorescent and incandescent lights for a 12 hr, 24°C day; 12 hr, 20°C night cycle, with approximately 80% relative humidity, for one week before removing the plastic bags. The plants were grown for another 2-4 weeks before performing ALS assays. […]\nKeep on ice. • 2. […] 16K rpm, 4°C. • 4. […] Incubate on ice for 30 minutes. • 6. […] Decant supernatant. • 7. Resuspend pellet in 1 ml cold column buffer. • 8. […] Let this run through column. • 9. Elute proteins with 2X volume of extract loaded. […] Incubate reaction for 1 hour, 30°C. • 12. […] Spin in microfuge 5 minutes. • 13. […] Read at OD 530."}, "ALS [4]": {"system": "ALS", "experiment": "ALS assay of leaf extracts, wild type tobacco", "type": "biochemical, Nicotiana tabacum CV.NK326 or K14", "details": "DPX-F6025 at 10ppb, activity without herbicide = 100 percent", "protocol": "as §2\nKeep on ice. • 2. […] Read at OD 530."}}, "data": [{"compound": "COc1nc(C)nc(NC(=O)NS(=O)(=O)c2ccccc2OCCCl)n1", "note": "[2-(2-chloroethoxy)-N-[(4-methoxy-6-methyl-1,3,5-triazin-2-yl)aminocarbonyl]benzenesulfonamide]", "values": [{"measurement": "cross resistance to foliar application", "setting": "Hra mutant plants", "value": "cross resistant"}]}, {"compound": "CC(C)C1(C)N=C(c2ncccc2C(=O)O)NC1=O.CC(C)N", "note": "(stereo not drawn)", "values": [{"measurement": "cross resistance to foliar application", "setting": "Hra mutant plants", "value": "cross resistant"}]}, {"compound": "COC(=O)c1c(C)cccc1S(=O)(=O)NC(=O)Nc1nc(C)cc(OC)n1", "note": "[2-[[(4-methoxy-6-methylpyrimidin-2-yl)aminocarbonyl]aminosulfonyl]-6-methylbenzoic acid, methyl ester]", "values": [{"measurement": "cross resistance to foliar application", "setting": "Hra mutant plants", "value": "cross resistant"}]}, {"compound": "COc1cc(OC)nc(NC(=O)NS(=O)(=O)c2c(Cl)ccc3c2S(=O)(=O)N(C)CC3)n1", "note": "[7-chloro-N-[(4,6-dimethoxypyrimidin-2-yl)aminocarbonyl]-3,4-dihydro-2-methyl-2H-1,2-benzothiazine-8-sulfonamide, S,S-dioxide]", "values": [{"measurement": "cross resistance to foliar application", "setting": "Hra mutant plants", "value": "cross resistant"}]}, {"compound": "CCC1C=NC(C2=NC(C)(C(C)C)C(=O)N2)=C(C(=O)O)C1", "note": "(stereo not drawn) [5-ethyl-4,5-dihydro-2-[4-methyl-4-(1-methylethyl)-5-oxo-1H-imidazol-2-yl]-3-pyridinecarboxylic acid]", "values": [{"measurement": "cross resistance to foliar application", "setting": "Hra mutant plants", "value": "cross resistant"}]}, {"compound": "COC(=O)c1ccccc1S(=O)(=O)NC(=O)Nc1nc(C)cc(C)n1", "note": "[sulfometuron methyl]", "values": [{"measurement": "selective herbicide resistance conferred by the mutation", "setting": "tobacco callus; C3 cell line (SURA-C3, proline-to-glutamine at position 197)", "value": "conferred resistance"}, {"measurement": "tolerated concentrations compared with that required to completely inhibit the growth of wild type callus", "setting": "tobacco callus; Hra cell line", "value": "one thousand times greater"}, {"measurement": "selective concentration which completely inhibits the growth", "setting": "tobacco callus; S4 cell line", "value": 200, "unit": "ppb"}, {"measurement": "resistance of ALS enzyme activity compared with ALS from wild type", "setting": "ALS [1]", "value": "one-hundred fold"}]}, {"compound": "Cc1cc(C)n2nc(S(=O)(=O)Nc3c(Cl)cccc3Cl)nc2n1", "note": "[N-(2,6-dichlorphenyl)-5,7-dimethyl[1,2,4]triazolo [1,5-A]pyrimidin-2-sulfonamide]", "values": [{"measurement": "cross resistance to foliar application", "setting": "Hra mutant plants", "value": "cross resistant"}]}, {"compound": "CCOC(=O)c1ccccc1S(=O)(=O)NC(=O)Nc1nc(Cl)cc(OC)n1", "note": "[DPX-F6025]", "values": [{"measurement": "Progeny Resistant/Sensitive", "setting": "[2]; K14 #7, 100ppb DPX-F6025", "value": "990/4"}, {"measurement": "Progeny Resistant/Sensitive", "setting": "[2]; K14 #7, 1000bbp DPX-F6025", "value": "109/1"}, {"measurement": "Progeny Resistant/Sensitive", "setting": "[2]; K14 #11, 100ppb DPX-F6025", "value": "208/85"}, {"measurement": "Progeny Resistant/Sensitive", "setting": "[2]; K14 #11, 1000bbp DPX-F6025", "value": "127/76"}, {"measurement": "Progeny Resistant/Sensitive", "setting": "[2]; K14 #27, 100ppb DPX-F6025", "value": "129/45"}, {"measurement": "Progeny Resistant/Sensitive", "setting": "[2]; K14 #27, 1000bbp DPX-F6025", "value": "108/42"}, {"measurement": "Progeny Resistant/Sensitive", "setting": "[2]; K14 #29, 100ppb DPX-F6025", "value": "192/46"}, {"measurement": "Progeny Resistant/Sensitive", "setting": "[2]; K14 #29, 1000bbp DPX-F6025", "value": "163/67"}, {"measurement": "Progeny Resistant/Sensitive", "setting": "[2]; K14 #32c, 100ppb DPX-F6025", "value": "140/65"}, {"measurement": "Progeny Resistant/Sensitive", "setting": "[2]; K14 #32c, 1000bbp DPX-F6025", "value": "63/86"}, {"measurement": "Progeny Resistant/Sensitive", "setting": "[2]; K14 #40, 100ppb DPX-F6025", "value": "218/18"}, {"measurement": "Progeny Resistant/Sensitive", "setting": "[2]; K14 #40, 1000bbp DPX-F6025", "value": "212/26"}, {"measurement": "Progeny Resistant/Sensitive", "setting": "[2]; K14 #41, 100ppb DPX-F6025", "value": "255/35"}, {"measurement": "Progeny Resistant/Sensitive", "setting": "[2]; K14 #41, 1000bbp DPX-F6025", "value": "296/74"}, {"measurement": "Progeny Resistant/Sensitive", "setting": "[2]; K14 #42, 100ppb DPX-F6025", "value": "162/74"}, {"measurement": "Progeny Resistant/Sensitive", "setting": "[2]; K14 #42, 1000bbp DPX-F6025", "value": "77/72"}, {"measurement": "Progeny Resistant/Sensitive", "setting": "[2]; K14 #53, 100ppb DPX-F6025", "value": "130/59"}, {"measurement": "Progeny Resistant/Sensitive", "setting": "[2]; K14 #53, 1000bbp DPX-F6025", "value": "149/139"}, {"measurement": "Progeny Resistant/Sensitive", "setting": "[2]; K14 #54A, 100ppb DPX-F6025", "value": "137/55"}, {"measurement": "Progeny Resistant/Sensitive", "setting": "[2]; K14 #54A, 1000bbp DPX-F6025", "value": "100/72"}, {"measurement": "Progeny Resistant/Sensitive", "setting": "[2]; K24 #31, 100ppb DPX-F6025", "value": "106/35"}, {"measurement": "Progeny Resistant/Sensitive", "setting": "[2]; K24 #31, 1000bbp DPX-F6025", "value": "99/34"}, {"measurement": "Progeny Resistant/Sensitive", "setting": "[2]; NK326 #9c, 100ppb DPX-F6025", "value": "163/49"}, {"measurement": "Progeny Resistant/Sensitive", "setting": "[2]; NK326 #9c, 1000bbp DPX-F6025", "value": "99/63"}, {"measurement": "Progeny Resistant/Sensitive", "setting": "[2]; NK326 #10, 100ppb DPX-F6025", "value": "93/31"}, {"measurement": "Progeny Resistant/Sensitive", "setting": "[2]; NK326 #10, 1000bbp DPX-F6025", "value": "96/24"}, {"measurement": "Progeny Resistant/Sensitive", "setting": "[2]; NK326 #10c, 100ppb DPX-F6025", "value": "333/45"}, {"measurement": "Progeny Resistant/Sensitive", "setting": "[2]; NK326 #10c, 1000bbp DPX-F6025", "value": "290/76"}, {"measurement": "Progeny Resistant/Sensitive", "setting": "[2]; NK326 #9d, 100ppb DPX-F6025", "value": "288/67"}, {"measurement": "Progeny Resistant/Sensitive", "setting": "[2]; NK326 #9d, 1000bbp DPX-F6025", "value": "150/58"}, {"measurement": "Progeny Resistant/Sensitive", "setting": "[2]; X14 #54, 100ppb DPX-F6025", "value": "99/38"}, {"measurement": "Progeny Resistant/Sensitive", "setting": "[2]; X14 #54, 1000bbp DPX-F6025", "value": "92/43"}, {"measurement": "Progeny Resistant/Sensitive", "setting": "[2]; nk326 #1, 100ppb DPX-F6025", "value": "98/37"}, {"measurement": "Progeny Resistant/Sensitive", "setting": "[2]; nk326 #1, 1000bbp DPX-F6025", "value": "90/35"}, {"measurement": "Percent Uninhibited ALS Activity", "setting": "ALS [3]; 10ppb", "value": 15, "unit": "%"}, {"measurement": "Percent Uninhibited ALS Activity", "setting": "ALS [3]; 100ppb", "value": 5, "unit": "%"}, {"measurement": "Percent Uninhibited ALS Activity", "setting": "ALS [3]; 1000ppb", "value": 4, "unit": "%"}, {"measurement": "% Unhibited ALS Activity", "setting": "ALS [4]; K14 wT", "value": 7, "unit": "%"}, {"measurement": "% Unhibited ALS Activity", "setting": "ALS [4]; NK326(wT)", "value": 7, "unit": "%"}]}, {"compound": "COC(=O)c1ccccc1S(=O)(=O)NC(=O)Nc1nc(C)cc(C)n1", "note": "[2-[[(4,6-dimethylpyrimidin-2-yl)aminocarbonyl]aminosulfonyl]benzoic acid, methyl ester]", "values": [{"measurement": "cross resistance to foliar application", "setting": "Hra mutant plants", "value": "cross resistant"}]}, {"compound": "CCOC(=O)c1ccccc1S(=O)(=O)NC(=O)Nc1nc(Cl)cc(OC)n1", "note": "[2-[[(4-chloro-6-methoxypyrimidin-2-yl)aminocarbonyl]aminosulfonyl]benzoic acid, ethyl ester]", "values": [{"measurement": "cross resistance to foliar application", "setting": "Hra mutant plants", "value": "cross resistant"}]}, {"compound": "Cc1cc(C)n2nc(S(=O)(=O)Nc3c(C)cccc3Cl)nc2n1", "note": "[N-(2-chloro-6-methylphenyl)-5,7-dimethyl[1,2,4]triazolo[1,5-A]pyrimidin-2-sulfonamide]", "values": [{"measurement": "cross resistance to foliar application", "setting": "Hra mutant plants", "value": "cross resistant"}]}, {"compound": "6-(4-isopropyl-4-methyl-5-oxo-2-imidazolin-2-yl)-m-toluic acid and p-toluic acid, methyl esters", "values": [{"measurement": "cross resistance to foliar application", "setting": "Hra mutant plants", "value": "cross resistant"}]}, {"compound": "COc1nc(C)nc(NC(=O)NS(=O)(=O)c2ccccc2Cl)n1", "note": "[2-chloro-N-[(4-methoxy-6-methyl-1,3,5-triazin-2-yl)aminocarbonyl]benzenesulfonamide]", "values": [{"measurement": "cross resistance to foliar application", "setting": "Hra mutant plants", "value": "cross resistant"}]}, {"compound": "Cc1cc(C)n2nc(S(=O)(=O)Nc3c(C)cccc3[N+](=O)[O-])nc2n1", "note": "[5,7-dimethyl-N-(2-methyl-6-nitrophenyl)[1,2,4]triazolo[1,5-A]pyrimidin-2-sulfonamide]", "values": [{"measurement": "cross resistance to foliar application", "setting": "Hra mutant plants", "value": "cross resistant"}]}, {"compound": "CC(C)C1(C)N=C(c2nc3ccccc3cc2C(=O)O)NC1=O", "note": "(stereo not drawn) [2-[4,5-dihydro-4-methyl-4-(1-methylethyl)-5-oxo-1H-imidazol-2-yl]-3-quinolinecarboxylic acid]", "values": [{"measurement": "cross resistance to foliar application", "setting": "Hra mutant plants", "value": "cross resistant"}]}, {"compound": "COc1cc(OC)nc(NC(=O)NS(=O)(=O)c2cccc3c2S(=O)(=O)C(C)C3)n1", "note": "(stereo not drawn) [N-[(4,6-dimethoxypyrimidin-2-yl)aminocarbonyl]-2,3-dihydro-2-methylbenzo[β]thiophene-7-sulfonamide, 1,1-dioxide]", "values": [{"measurement": "cross resistance to foliar application", "setting": "Hra mutant plants", "value": "cross resistant"}]}]}
